# Test results as given in ChEMBL document CHEMBL3044789, “Comparing weed and crop seedling response to pre-emergence pendimethalin application in Corchorus olitorius and Abelmoschus esculentus” (Crop Prot, 2006).
# How the values were obtained:
# [1] = test system: Mimosa pudica; test: Herbicidal activity against Mimosa pudica in Abelmoschus esculentus plots assessed as weed cover at 0.33 kg a.i/ha after 4 weeks (reference value: 22.6 +/- 0.49 %); type: functional
# [2] = test system: Commelina diffusa; test: Herbicidal activity against Commelina diffusa in Abelmoschus esculentus plots assessed as weed cover at 0.66 kg a.i/ha after 2 weeks (reference value: 63.5 +/- 0.29 %); type: functional
# [3] = test system: Calopogonium mucunoides; test: Herbicidal activity against Calopogonium mucunoides in Abelmoschus esculentus plots assessed as weed recovery at 1.32 kg a.i/ha after 2 weeks (reference value: 60.1 +/- 0.46 %); type: functional
# [4] = test system: Euphorbia heterophylla; test: Herbicidal activity against Euphorbia heterophylla in Corchorus olitorius plots assessed as weed cover at 1.32 kg a.i/ha after 2 weeks (reference value: 81.7 +/- 0.43 %); type: functional
# [5] = test system: Euphorbia heterophylla; test: Herbicidal activity against Euphorbia heterophylla in Corchorus olitorius plots assessed as weed cover at 0.99 kg a.i/ha after 4 weeks (reference value: 20.1+/- 0.57 %); type: functional
# [6] = test system: Calopogonium mucunoides; test: Herbicidal activity against Calopogonium mucunoides in Abelmoschus esculentus plots assessed as weed cover at 1.32 kg a.i/ha after 4 weeks (reference value: 22.6 +/- 0.49 %); type: functional
# [7] = test system: Commelina diffusa; test: Herbicidal activity against Commelina diffusa in Abelmoschus esculentus plots assessed as weed recovery at 0.66 kg a.i/ha after 2 weeks (reference value: 60.1 +/- 0.46 %); type: functional
# [8] = test system: Calopogonium mucunoides; test: Herbicidal activity against Calopogonium mucunoides in Abelmoschus esculentus plots assessed as weed cover at 0.66 kg a.i/ha after 4 weeks (reference value: 22.6 +/- 0.49 %); type: functional
# [9] = test system: Calopogonium mucunoides; test: Herbicidal activity against Calopogonium mucunoides in Abelmoschus esculentus plots assessed as weed cover at 0.99 kg a.i/ha after 4 weeks (reference value: 22.6 +/- 0.49 %); type: functional
# [10] = test system: Commelina diffusa; test: Herbicidal activity against Commelina diffusa in Corchorus olitorius plots assessed as weed cover at 0.66 kg a.i/ha after 2 weeks (reference value: 81.7 +/- 0.43 %); type: functional
# [11] = test system: Euphorbia heterophylla; test: Herbicidal activity against Euphorbia heterophylla in Abelmoschus esculentus plots assessed as major weed growth at 0.66 kg a.i/ha after 2 weeks; type: functional
# [12] = test system: Euphorbia heterophylla; test: Herbicidal activity against Euphorbia heterophylla in Abelmoschus esculentus plots assessed as major weed growth at 0.99 kg a.i/ha after 2 weeks; type: functional
# [13] = test system: Commelina diffusa; test: Herbicidal activity against Commelina diffusa in Abelmoschus esculentus plots assessed as minor weed growth at 0.66 kg a.i/ha after 2 weeks; type: functional
# [14] = test system: Calopogonium mucunoides; test: Herbicidal activity against Calopogonium mucunoides in Corchorus olitorius plots assessed as weed cover at 0.66 kg a.i/ha after 4 weeks (reference value: 20.1+/- 0.57 %); type: functional
# [15] = test system: Abelmoschus esculentus; test: Phytotoxicity in Abelmoschus esculentus assessed as shoot length at 1.32 kg a.i/ha treated to soil after 7 weeks (reference value: 8.5 +/- 0.34 mm); type: organism-based; settings: in vivo, other, 1176 h
# [16] = test system: Calopogonium mucunoides; test: Herbicidal activity against Calopogonium mucunoides in Abelmoschus esculentus plots assessed as weed recovery at 0.66 kg a.i/ha after 2 weeks (reference value: 60.1 +/- 0.46 %); type: functional
# [17] = test system: Corchorus olitorius; test: Phytotoxicity in Corchorus olitorius assessed as crop seedling injury at 0.99 kg a.i/ha after 2 weeks relative to untreated control; type: organism-based; settings: in vivo, 336 h
# [18] = test system: Corchorus olitorius; test: Phytotoxicity in Corchorus olitorius assessed as root length at 0.66 kg a.i/ha applied as solution after 7 weeks (reference value: 14.3 +/- 1.06 mm); type: organism-based; settings: in vivo, other, 1176 h
# [19] = test system: Euphorbia heterophylla; test: Herbicidal activity against Euphorbia heterophylla in Corchorus olitorius plots assessed as weed cover at 0.66 kg a.i/ha after 4 weeks (reference value: 20.1+/- 0.57 %); type: functional
# [20] = test system: Commelina diffusa; test: Herbicidal activity against Commelina diffusa in Corchorus olitorius plots assessed as minor weed growth at 0.66 kg a.i/ha after 2 weeks; type: functional
# [21] = test system: Synedrella nodiflora; test: Herbicidal activity against Synedrella nodiflora in Corchorus olitorius plots assessed as major weed growth at 0.33 kg a.i/ha after 2 weeks; type: functional
# [22] = test system: Euphorbia heterophylla; test: Herbicidal activity against Euphorbia heterophylla in Corchorus olitorius plots assessed as weed recovery at 0.66 kg a.i/ha after 2 weeks (reference value: 78.3 +/- 0.74 %); type: functional
# [23] = test system: Chromolaena odorata; test: Herbicidal activity against Chromolaena odorata in Corchorus olitorius plots assessed as weed cover at 1.32 kg a.i/ha after 2 weeks (reference value: 81.7 +/- 0.43 %); type: functional
# [24] = test system: Synedrella nodiflora; test: Herbicidal activity against Synedrella nodiflora in Abelmoschus esculentus plots assessed as weed cover at 0.99 kg a.i/ha after 7 weeks (reference value: 14.7 +/- 0.46 %); type: functional
# [25] = test system: Calopogonium mucunoides; test: Herbicidal activity against Calopogonium mucunoides in Corchorus olitorius plots assessed as major weed growth at 0.33 kg a.i/ha after 2 weeks; type: functional
# [26] = test system: Synedrella nodiflora; test: Herbicidal activity against Synedrella nodiflora in Abelmoschus esculentus plots assessed as weed cover at 0.99 kg a.i/ha after 4 weeks (reference value: 22.6 +/- 0.49 %); type: functional
# [27] = test system: Calopogonium mucunoides; test: Herbicidal activity against Calopogonium mucunoides in Corchorus olitorius plots assessed as weed cover at 0.33 kg a.i/ha after 7 weeks (reference value: 1.7 +/- 0.56 %); type: functional
# [28] = test system: Abelmoschus esculentus; test: Phytotoxicity in Abelmoschus esculentus assessed as seedling injury at 0.33 kg a.i/ha applied as solution after 7 weeks relative to control; type: organism-based; settings: in vivo, other, 1176 h
# [29] = test system: Calopogonium mucunoides; test: Herbicidal activity against Calopogonium mucunoides in Abelmoschus esculentus plots assessed as weed recovery at 0.33 kg a.i/ha after 2 weeks (reference value: 60.1 +/- 0.46 %); type: functional
# [30] = test system: Calopogonium mucunoides; test: Herbicidal activity against Calopogonium mucunoides in Corchorus olitorius plots assessed as weed recovery at 0.33 kg a.i/ha after 2 weeks (reference value: 78.3 +/- 0.74 %); type: functional
# [31] = test system: Cyperus rotundus; test: Herbicidal activity against Cyperus rotundus form in Abelmoschus esculentus plots assessed as minor weed growth at 0.66 kg a.i/ha after 2 weeks; type: functional
# [32] = test system: Chromolaena odorata; test: Herbicidal activity against Chromolaena odorata in Corchorus olitorius plots assessed as weed cover at 0.33 kg a.i/ha after 7 weeks (reference value: 1.7 +/- 0.56 %); type: functional
# [33] = test system: Ageratum conyzoides; test: Herbicidal activity against Ageratum conyzoides in Abelmoschus esculentus plots assessed as weed cover at 0.33 kg a.i/ha after 7 weeks (reference value: 14.7 +/- 0.46 %); type: functional
# [34] = test system: Ageratum conyzoides; test: Herbicidal activity against Ageratum conyzoides in Corchorus olitorius plots assessed as major weed growth at 0.33 kg a.i/ha after 2 weeks; type: functional
# [35] = test system: Rottboellia cochinchinensis; test: Herbicidal activity against Rottboellia cochinchinensis in Abelmoschus esculentus plots assessed as weed recovery at 0.33 kg a.i/ha after 2 weeks (reference value: 60.1 +/- 0.46 %); type: functional
# [36] = test system: Asteraceae; test: Herbicidal activity against Aspilia africana in Corchorus olitorius plots assessed as weed cover at 0.66 kg a.i/ha after 4 weeks (reference value: 20.1+/- 0.57 %); type: functional
# [37] = test system: Calopogonium mucunoides; test: Herbicidal activity against Calopogonium mucunoides in Corchorus olitorius plots assessed as weed cover at 0.99 kg a.i/ha after 7 weeks (reference value: 1.7 +/- 0.56 %); type: functional
compound,measurement,setting,value
CCC(CC)Nc1c([N+](=O)[O-])cc(C)c(C)c1[N+](=O)[O-] [PENDIMETHALIN],Activity,[1],53.8%
same,Activity,[2],50.8%
same,Activity,[3],33.2%
same,Activity,[4],41.7%
same,Activity,[5],48.3%
same,Activity,[6],36.2%
same,Activity,[7],47.9%
same,Activity,[8],47.9%
same,Activity,[9],39.2%
same,Activity,[10],51.7%
same,Activity,[11],31 /m2
same,Activity,[12],31 /m2
same,Activity,[13],1 /m2
same,Activity,[14],63.3%
same,Activity,[15],3.6 mm
same,Activity,[16],47.9%
same,Activity,[17],60%
same,Activity,[18],2.6 mm
same,Activity,[19],63.3%
same,Activity,[20],1 /m2
same,Activity,[21],31 /m2
same,Activity,[22],33.3%
same,Activity,[23],41.7%
same,Activity,[24],83.9%
same,Activity,[25],31 /m2
same,Activity,[26],39.2%
same,Activity,[27],100%
same,Activity,[28],29.9%
same,Activity,[29],39.2%
same,Activity,[30],31.7%
same,Activity,[31],1 /m2
same,Activity,[32],100%
same,Activity,[33],90%
same,Activity,[34],31 /m2
same,Activity,[35],39.2%
same,Activity,[36],63.3%
same,Activity,[37],95%
